These results are taken from patent US20210347775A1, “Deuterated Imidazo[4,5-c]quinolin-2-one Compounds and Their Use in Treating Cancer” (AstraZeneca AB, priority 2017, published 2021).

The target of one assay is T1, ATR (Homo sapiens, UniProt Q13535).
T1 construct: endogenous in cells; host or cells: HT29 cells (ECACC #85061109)
As to the kind of experiment: Assay b): ATR cellular potency (pChk1 Ser345 in HT29 cells after 4NQO). It counts as cell-based. As to conditions: Table 3 comparative data; HT29 cells, pChk1 Ser345 after 4NQO; may be geometric mean of several tests; read-out: Assay b) ATR Cell IC50. Here is the method: (§1) The following assays were used to measure the effects of the compounds of the present invention: a) ATM cellular potency assay; b) PI3K cellular potency assay; c) mTOR cellular potency assay; d) ATR cellular potency assay. During the description of the assays, generally: • i. […] IC50 values were calculated using a smart fitting model in Genedata. […]
Phospho-Chk1 Ser 345 antibody (Cell Signalling Technology #2348) was diluted 150 fold in PBS containing 0.05% polysorbate/Tween and 15 μl was added to each well and incubated over night at r.t. […] After 2 h incubation at r.t., the plates were washed three times with 50 μl/well PBS, using a Biotek EL405 plate washer, and plates were then sealed with black plate seals until read. Plates were read using an ArrayScan VTI instrument, using an XF53 filter with 10× objective. […]

Another assay deals with T2, ATM (Homo sapiens, UniProt Q13315).
T2 construct: endogenous in cells; host or cells: HT29 cells (ECACC #85061109)
As to the kind of experiment: Assay a): ATM cellular potency (pATM Ser1981 in irradiated HT29 cells). It counts as cell-based. As to conditions: Table 2; HT29 cells, pATM Ser1981 after X-ray irradiation; may be geometric mean of several tests; read-out: Assay a) ATM Cell IC50. Here is the method: as §1
The rationale of the pATM assay is to identify inhibitors of ATM in cells. […] The fluorescence is read on the arrayscan imaging platform. […]
Phospho-ATM Ser1981 antibody (Millipore #MAB3806) was diluted 10000 fold in PBS containing 0.05% polysorbate/Tween and 3% BSA and 20 μl was added to each well and incubated over night at r.t. […] After 1 h incubation at r.t., the plates were washed three times with 50 μl/well PBS, using a Biotek EL405 plate washer, and plates were sealed and kept in PBS at 4° C. until read. Plates were read using an ArrayScan VTI instrument, using an XF53 filter with 10× objective. […]

T1 sequence (Q13535 whole entry): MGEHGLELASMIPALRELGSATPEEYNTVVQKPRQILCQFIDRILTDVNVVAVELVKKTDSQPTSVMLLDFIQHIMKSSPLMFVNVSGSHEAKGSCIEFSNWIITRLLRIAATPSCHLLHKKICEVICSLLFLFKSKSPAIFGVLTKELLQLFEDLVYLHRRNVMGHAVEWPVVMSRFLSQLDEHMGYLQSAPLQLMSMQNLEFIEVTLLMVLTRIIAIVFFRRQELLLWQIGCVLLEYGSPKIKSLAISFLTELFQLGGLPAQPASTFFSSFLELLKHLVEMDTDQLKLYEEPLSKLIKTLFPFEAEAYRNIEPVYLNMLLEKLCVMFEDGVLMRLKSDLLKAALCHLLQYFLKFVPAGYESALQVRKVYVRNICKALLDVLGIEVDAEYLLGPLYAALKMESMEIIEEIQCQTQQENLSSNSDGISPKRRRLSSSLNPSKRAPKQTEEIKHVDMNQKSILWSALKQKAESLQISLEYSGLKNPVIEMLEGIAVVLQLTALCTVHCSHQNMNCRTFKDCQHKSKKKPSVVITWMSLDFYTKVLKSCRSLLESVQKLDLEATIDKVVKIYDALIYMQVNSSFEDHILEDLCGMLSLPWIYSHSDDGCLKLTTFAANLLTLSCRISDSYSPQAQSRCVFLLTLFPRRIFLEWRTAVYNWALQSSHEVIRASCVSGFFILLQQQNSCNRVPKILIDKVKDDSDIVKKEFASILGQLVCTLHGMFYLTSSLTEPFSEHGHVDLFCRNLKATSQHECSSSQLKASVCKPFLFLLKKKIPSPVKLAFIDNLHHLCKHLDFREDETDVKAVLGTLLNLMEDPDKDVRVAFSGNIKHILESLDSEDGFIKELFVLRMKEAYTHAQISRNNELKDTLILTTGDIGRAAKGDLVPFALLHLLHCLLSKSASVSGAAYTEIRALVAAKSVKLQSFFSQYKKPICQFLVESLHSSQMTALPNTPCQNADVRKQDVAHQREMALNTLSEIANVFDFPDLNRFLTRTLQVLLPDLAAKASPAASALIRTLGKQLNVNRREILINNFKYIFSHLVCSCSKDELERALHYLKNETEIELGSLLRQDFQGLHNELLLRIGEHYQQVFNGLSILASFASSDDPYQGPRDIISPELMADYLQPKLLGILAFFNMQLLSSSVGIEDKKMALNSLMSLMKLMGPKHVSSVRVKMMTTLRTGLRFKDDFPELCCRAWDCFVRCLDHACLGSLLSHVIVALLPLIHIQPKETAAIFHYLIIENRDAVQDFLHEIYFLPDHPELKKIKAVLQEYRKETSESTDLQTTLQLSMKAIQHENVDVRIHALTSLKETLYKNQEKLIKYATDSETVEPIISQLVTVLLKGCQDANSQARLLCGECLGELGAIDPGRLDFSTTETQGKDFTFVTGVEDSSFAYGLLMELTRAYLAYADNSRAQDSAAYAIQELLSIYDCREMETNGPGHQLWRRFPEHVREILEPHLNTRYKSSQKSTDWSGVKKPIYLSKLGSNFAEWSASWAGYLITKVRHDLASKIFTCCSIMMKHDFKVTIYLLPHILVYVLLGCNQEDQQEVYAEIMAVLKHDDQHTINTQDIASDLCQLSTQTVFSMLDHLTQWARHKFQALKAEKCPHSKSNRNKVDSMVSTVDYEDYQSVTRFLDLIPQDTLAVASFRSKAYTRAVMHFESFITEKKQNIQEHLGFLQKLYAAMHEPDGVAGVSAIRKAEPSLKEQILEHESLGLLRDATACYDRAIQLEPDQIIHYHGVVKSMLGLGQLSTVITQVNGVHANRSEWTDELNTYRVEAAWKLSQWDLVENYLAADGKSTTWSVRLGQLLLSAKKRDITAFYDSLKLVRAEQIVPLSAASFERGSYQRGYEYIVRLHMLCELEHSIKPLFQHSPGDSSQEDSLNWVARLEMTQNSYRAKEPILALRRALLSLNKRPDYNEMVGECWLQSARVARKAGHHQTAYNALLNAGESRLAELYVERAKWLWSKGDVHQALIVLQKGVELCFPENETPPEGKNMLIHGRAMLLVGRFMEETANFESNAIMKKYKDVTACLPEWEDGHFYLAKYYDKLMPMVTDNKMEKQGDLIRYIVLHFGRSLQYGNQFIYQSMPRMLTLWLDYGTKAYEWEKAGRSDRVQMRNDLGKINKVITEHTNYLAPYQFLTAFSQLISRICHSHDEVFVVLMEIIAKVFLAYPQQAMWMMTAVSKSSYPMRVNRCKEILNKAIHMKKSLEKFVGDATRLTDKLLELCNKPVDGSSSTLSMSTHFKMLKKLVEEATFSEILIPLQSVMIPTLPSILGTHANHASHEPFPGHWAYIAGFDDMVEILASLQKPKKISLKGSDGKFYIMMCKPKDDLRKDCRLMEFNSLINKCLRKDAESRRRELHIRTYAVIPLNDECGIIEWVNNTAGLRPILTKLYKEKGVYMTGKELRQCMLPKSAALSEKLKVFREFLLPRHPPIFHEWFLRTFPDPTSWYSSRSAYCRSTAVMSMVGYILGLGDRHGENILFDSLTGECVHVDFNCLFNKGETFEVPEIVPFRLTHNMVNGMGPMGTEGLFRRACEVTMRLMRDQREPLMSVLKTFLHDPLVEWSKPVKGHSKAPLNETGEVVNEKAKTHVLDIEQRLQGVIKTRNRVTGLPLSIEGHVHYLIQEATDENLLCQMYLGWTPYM
T1 sequence (Q8WXE1 whole entry partner): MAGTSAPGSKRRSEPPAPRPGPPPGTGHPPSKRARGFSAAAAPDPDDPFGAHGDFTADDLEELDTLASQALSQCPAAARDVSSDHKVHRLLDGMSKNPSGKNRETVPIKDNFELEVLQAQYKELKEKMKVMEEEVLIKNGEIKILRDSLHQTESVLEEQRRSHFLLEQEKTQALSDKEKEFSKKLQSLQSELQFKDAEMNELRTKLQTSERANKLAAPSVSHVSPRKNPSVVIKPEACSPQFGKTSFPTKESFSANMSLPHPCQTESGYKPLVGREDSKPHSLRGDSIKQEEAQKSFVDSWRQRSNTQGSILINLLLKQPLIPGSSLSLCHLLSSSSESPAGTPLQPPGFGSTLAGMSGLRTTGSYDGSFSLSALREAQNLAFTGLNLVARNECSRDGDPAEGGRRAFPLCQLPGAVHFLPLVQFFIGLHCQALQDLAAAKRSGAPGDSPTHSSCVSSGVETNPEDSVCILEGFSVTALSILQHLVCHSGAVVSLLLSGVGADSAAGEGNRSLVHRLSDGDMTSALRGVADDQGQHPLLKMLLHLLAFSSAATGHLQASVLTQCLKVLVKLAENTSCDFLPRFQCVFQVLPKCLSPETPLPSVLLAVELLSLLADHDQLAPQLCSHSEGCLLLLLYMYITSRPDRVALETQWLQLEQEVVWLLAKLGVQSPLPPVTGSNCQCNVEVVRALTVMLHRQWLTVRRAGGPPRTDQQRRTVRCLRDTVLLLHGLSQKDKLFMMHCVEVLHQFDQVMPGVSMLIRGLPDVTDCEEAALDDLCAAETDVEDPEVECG

What is called IC50 is the concentration at which inhibition is half-maximal. Consider `Cn1c(=O)n(C2CCOCC2)c2c3cc(-c4cnn(CCCO)c4)ccc3ncc21` [CN102399218A Compound 60], for which the IC50 on ATR came to 419 nM.

For the molecule `[2H]c1c(F)c(-c2ccc(OCCCN3CCCCC3)nc2)cc2c1nc([2H])c1c2n(C(C)C)c(=O)n1C` [Example 1, 4,6-Dideuterio-7-fluoro-1-isopropyl-3-methyl-8-[6-[3-(1-piperidyl)propoxy]-3-pyridyl]imidazo[4,5-c]quinolin-2-one], the IC50 at ATM is 2.5 nM.
